The assay has as its system vaginolysin (vly). The class given is cell-based, Gardnerella vaginalis.

“Also recorded” adds a separate entry of the source.

As to `C[C@@H](O)[C@H](O)[C@H](O)[C@@H](O)C=O` [D-fucose, 6-deoxy-D-galactose], the “effect on vly expression, in words” value is “expressed less vaginolysin; also recorded: significantly reduce vly expression”.

The values are drawn from patent US20230398178A1, “METHODS AND COMPOSITIONS FOR TREATING OR PREVENTING A VAGINAL INFECTION OF GARDNERELLA VAGINALIS” (Massachusetts Institute of Technology, priority 2022, published 2023).
